{
  "source": "paper PMC11889359",
  "about": "“Site-Specific Competitive Kinase Inhibitor Target Profiling Using Phosphonate Affinity Tags” (Molecular & Cellular Proteomics : MCP, 2025)",
  "key": {"EphA2 [1]": {"molecular_target": "EphA2", "set-up": "method as in PMID 29928781", "conditions": "read-out: Literature value for EphA2, kinobeads; cited from earlier work"}, "EphA2 [2]": {"tested_on": "EphA2", "set-up": "method as in PMID 29928781", "conditions": "read-out: Literature value for EphA2, NanoBRET assay; cited from earlier work"}, "EphB4": {"tested_on": "EphB4", "set-up": "method as in PMID 20803239", "conditions": "cellular autophosphorylation; cited from earlier work"}, "[3]": {"molecular_target": "T1, proto-oncogene tyrosine-protein kinase src (SRC) (Homo sapiens, UniProt P12931)", "T1 construct": "endogenous in cells; host or cells: cultured cells treated intact (A549 per the earlier reading)", "test": "Competitive site-specific PhosID-ABPP with XO44 in intact A549 cells", "format": "binding", "conditions": "0.1 nM to 25 µM inhibitor, trypsin and pepsin", "experimental": "(§1) 1e^6 cells were plated in 15 cm plates (Greiner) 3 days before treatment and kept in a humidified atmosphere with 5% CO2 at 37 °C. The growth medium was replaced by 10 ml treatment [DMEM with 0.5% FBS and 100 units/ml PS supplemented with the corresponding concentration of NVP-BHG712 (Sigma-Aldrich) or DMSO] and incubated at 37 °C, 5% CO2 for 3 h. Then, 10 μl 25 mM XO44 (PF-6808472, Sigma-Aldrich) was added directly to the medium and swirled to enable dissolution. Subsequently, the cells were incubated at 37 °C, 5% CO2 for 4 h. The samples for Supplemental Fig. S1 were generated by directly incubating with 25 μM XO44-containing growth medium for 4 h.\n(§2) After treatment, the cells were washed with ice-cold DPBS and harvested using a cell scraper in 1 ml ice-cold DPBS. Then, the cell suspension was spun down at 2000g for 1 min, and the supernatant was aspirated. The cell pellet was snap-frozen in liquid nitrogen and stored at −80 °C for later use.\n(§3) Cell pellets were lysed in 500 μl lysis buffer per 15 cm plate of cells, consisting of 50 mM Hepes (Sigma-Aldrich, pH 7.5), 0.5% NP-40 (Applichem), 0.2% SDS (Gen-Apex), 2 mM MgCl2 (Sigma-Aldrich), 10 mM NaCl (Merck), 1× protease inhibitor cocktail (Roche), and 0.5 μl/ml Benzonase (Millipore). Cell lysates were incubated at room temperature for 15 min to allow DNA cleavage. Cell debris and DNA were spun down for 30 min at 20,567g at 16 °C. The supernatant was collected, and the protein concentration was determined by a bicinchoninic acid assay (Thermo Fisher Scientific).\n(§4) The copper(I)-catalyzed azide-alkyne cycloaddition (CuAAC) was performed on cellular lysates in 2 M urea (Merck) in 1× 50 mM Hepes (pH 7.5). CuAAC components were added in the following order: 5 mM tris(3-hydroxypropyltriazolylmethyl)amine (Lumiprobe), 2.5 mM CuSO4 5·H2O (Sigma-Aldrich), 500 μM phosphonate-azide (prepared as described in van Bergen et al., 2023 ([28])), and 25 mM sodium ascorbate (Sigma-Aldrich). Samples were incubated for 2 h at room temperature while rotating. Methanol–chloroform precipitation was performed to remove the CuAAC components, and the air-dried pellets were resuspended in 8 M urea and sonicated in a bioruptor (Diagenode) with the high amplitude setting for 10 min with cycles of 30 s on and 30 s off.\n(§5) Clicked and dissolved protein samples were diluted to 4M urea with 50 mM ammonium bicarbonate (pH 8, AmBic, Sigma-Aldrich). The proteins were reduced with 4 mM DTT (Sigma-Aldrich) for 60 minutes at room temperature and alkylated in the dark using 8 mM iodoacetamide (Sigma-Aldrich) for 30 min. Residual iodoacetamide was quenched by adding DTT to a final concentration of 4 mM.\n(§6) Next, samples were diluted 2× with 50 mM AmBic and digested with LysC (1:75 enzyme to protein ratio, Wako) for 4 h at 37 °C. Finally, proteins were digested overnight using Trypsin (1:50, enzyme to protein ratio, Sigma-Aldrich) at 37 °C. Proteolysis with chymotrypsin was performed similarly to the trypsin digestion, only replacing both proteolytic enzymes with α-chymotrypsin (bovine, 1:75, enzyme to protein ratio, Sigma-Aldrich) overnight at 37 °C. Digested material was desalted using 3 cc C18 Seppak cartridges (Waters) and air dried using a vacuum centrifuge.\n(§7) For the digestion with pepsin, protease incubation (Porcine, 1:50, enzyme to protein ratio, Sigma-Aldrich) was performed for 4 h at 37 °C in 40 mM HCl (pH 2). Digested material was directly desalted using 3 cc C18 Seppak cartridges and air dried using a vacuum centrifuge.\n(§8) Samples were dephosphorylated prior to immobilized metal affinity chromatography (IMAC) enrichment. Desalted peptides were dissolved in 1× rCutSmart buffer (pH 8, New England BioLabs) and incubated with 50 units of alkaline phosphatase (calf intestinal, QuickCIP, New England BioLabs) overnight at 37 °C while shaking. After dephosphorylation, all peptides were again desalted using 3 cc C18 Seppak cartridges and air-dried using a vacuum centrifuge. […]"}, "JAK1": {"molecular_target": "T2, JAK1 (Homo sapiens, UniProt P23458)", "T2 construct": "endogenous in cells; host or cells: cultured cells treated intact (A549 per the earlier reading)", "T2 sequence (P23458 whole entry)": "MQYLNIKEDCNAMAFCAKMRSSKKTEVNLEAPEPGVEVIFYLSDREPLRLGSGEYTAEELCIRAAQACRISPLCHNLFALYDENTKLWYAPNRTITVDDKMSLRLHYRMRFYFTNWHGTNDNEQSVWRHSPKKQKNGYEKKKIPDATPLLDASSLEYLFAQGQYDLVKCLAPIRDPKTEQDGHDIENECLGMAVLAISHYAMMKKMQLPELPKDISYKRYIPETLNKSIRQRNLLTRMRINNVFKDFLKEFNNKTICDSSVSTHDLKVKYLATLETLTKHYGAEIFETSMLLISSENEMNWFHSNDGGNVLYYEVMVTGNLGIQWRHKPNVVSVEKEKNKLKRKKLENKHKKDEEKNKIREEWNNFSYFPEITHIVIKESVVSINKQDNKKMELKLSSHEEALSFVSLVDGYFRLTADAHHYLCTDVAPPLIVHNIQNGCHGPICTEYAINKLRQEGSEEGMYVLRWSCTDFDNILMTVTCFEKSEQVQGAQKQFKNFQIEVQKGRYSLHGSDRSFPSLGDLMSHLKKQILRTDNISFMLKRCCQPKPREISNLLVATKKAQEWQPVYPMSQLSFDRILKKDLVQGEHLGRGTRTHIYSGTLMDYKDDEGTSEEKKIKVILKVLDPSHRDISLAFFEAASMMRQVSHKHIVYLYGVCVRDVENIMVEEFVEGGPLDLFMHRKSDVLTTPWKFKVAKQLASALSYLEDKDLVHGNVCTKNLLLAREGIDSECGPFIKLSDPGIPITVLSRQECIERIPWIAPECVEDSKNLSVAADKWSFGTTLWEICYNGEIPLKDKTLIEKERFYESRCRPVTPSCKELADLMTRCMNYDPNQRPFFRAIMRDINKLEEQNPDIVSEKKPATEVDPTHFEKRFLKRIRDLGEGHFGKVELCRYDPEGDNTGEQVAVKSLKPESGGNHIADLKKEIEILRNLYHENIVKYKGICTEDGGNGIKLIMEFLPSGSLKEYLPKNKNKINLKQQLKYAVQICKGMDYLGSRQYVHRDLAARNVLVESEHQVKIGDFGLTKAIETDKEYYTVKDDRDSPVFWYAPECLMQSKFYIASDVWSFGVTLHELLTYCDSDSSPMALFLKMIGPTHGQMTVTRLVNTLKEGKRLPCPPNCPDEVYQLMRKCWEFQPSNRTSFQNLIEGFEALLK", "test": "Competitive site-specific PhosID-ABPP with XO44 in intact A549 cells", "format": "binding", "conditions": "0.1 nM to 25 µM inhibitor, trypsin and pepsin", "experimental": "as §1, §2, §3, §4, §5, §6, §7, §8"}, "LYN": {"molecular_target": "T3, LYN (Homo sapiens, UniProt P07948)", "T3 construct": "endogenous in cells; host or cells: cultured cells treated intact (A549 per the earlier reading)", "T3 sequence (P07948 whole entry)": "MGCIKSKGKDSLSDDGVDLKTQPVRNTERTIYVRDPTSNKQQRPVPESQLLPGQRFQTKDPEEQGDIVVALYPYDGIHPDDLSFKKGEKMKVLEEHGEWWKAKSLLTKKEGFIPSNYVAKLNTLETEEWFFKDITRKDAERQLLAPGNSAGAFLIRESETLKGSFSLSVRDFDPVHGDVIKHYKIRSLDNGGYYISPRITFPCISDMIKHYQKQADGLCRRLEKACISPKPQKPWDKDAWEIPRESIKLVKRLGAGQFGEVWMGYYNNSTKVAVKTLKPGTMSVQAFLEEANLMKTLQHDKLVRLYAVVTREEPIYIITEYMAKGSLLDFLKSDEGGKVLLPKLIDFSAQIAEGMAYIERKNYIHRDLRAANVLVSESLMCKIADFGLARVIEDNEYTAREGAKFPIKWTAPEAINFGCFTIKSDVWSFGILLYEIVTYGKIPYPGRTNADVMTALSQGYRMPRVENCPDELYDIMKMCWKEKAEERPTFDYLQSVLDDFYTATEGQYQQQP", "test": "Competitive site-specific PhosID-ABPP with XO44 in intact A549 cells", "format": "binding", "conditions": "apparent IC50, pepsin-based analysis, n = 3, read-out: IC50 LYN;K275", "experimental": "as §1, §2, §3, §4, §5, §6, §7, §8"}, "EphA2 [4]": {"molecular_target": "T4, EphA2 (Homo sapiens, UniProt P29317)", "T4 construct": "endogenous in cells; host or cells: cultured cells treated intact (A549 per the earlier reading)", "T4 sequence (P29317 24-976)": "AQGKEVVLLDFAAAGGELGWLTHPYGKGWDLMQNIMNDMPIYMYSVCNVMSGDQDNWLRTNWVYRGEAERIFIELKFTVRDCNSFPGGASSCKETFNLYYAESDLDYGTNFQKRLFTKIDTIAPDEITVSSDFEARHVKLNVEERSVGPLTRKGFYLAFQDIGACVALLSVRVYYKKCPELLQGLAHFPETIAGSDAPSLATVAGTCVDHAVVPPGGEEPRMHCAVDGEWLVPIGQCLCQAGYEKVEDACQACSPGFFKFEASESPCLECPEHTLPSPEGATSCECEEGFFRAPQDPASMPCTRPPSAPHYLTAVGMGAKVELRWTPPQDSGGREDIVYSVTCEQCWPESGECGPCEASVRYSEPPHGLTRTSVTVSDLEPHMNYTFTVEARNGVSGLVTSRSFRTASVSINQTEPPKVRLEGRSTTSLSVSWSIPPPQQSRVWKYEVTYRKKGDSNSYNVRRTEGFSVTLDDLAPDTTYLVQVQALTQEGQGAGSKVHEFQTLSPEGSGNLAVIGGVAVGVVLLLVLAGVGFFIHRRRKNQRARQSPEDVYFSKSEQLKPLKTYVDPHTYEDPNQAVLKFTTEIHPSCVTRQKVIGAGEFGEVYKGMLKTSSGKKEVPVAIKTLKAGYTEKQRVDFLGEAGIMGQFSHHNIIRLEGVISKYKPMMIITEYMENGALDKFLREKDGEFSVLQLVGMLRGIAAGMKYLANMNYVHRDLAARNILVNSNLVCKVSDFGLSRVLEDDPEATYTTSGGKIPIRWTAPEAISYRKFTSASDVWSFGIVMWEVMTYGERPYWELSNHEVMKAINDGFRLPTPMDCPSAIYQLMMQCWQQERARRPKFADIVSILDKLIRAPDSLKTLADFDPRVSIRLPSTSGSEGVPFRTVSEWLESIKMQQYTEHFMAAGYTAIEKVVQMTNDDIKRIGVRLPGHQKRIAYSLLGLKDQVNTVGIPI", "test": "Competitive site-specific PhosID-ABPP with XO44 in intact A549 cells", "format": "binding", "conditions": "apparent IC50, 3 h inhibitor then 25 μM XO44 4 h", "experimental": "as §1, §2, §3, §4, §5, §6, §7, §8"}, "[5]": {"molecular_target": "T5, cyclin G–associated kinase (GAK) (Homo sapiens, UniProt O14976)", "T5 construct": "endogenous in cells; host or cells: cultured cells treated intact (A549 per the earlier reading)", "T5 sequence (O14976 1-1311)": "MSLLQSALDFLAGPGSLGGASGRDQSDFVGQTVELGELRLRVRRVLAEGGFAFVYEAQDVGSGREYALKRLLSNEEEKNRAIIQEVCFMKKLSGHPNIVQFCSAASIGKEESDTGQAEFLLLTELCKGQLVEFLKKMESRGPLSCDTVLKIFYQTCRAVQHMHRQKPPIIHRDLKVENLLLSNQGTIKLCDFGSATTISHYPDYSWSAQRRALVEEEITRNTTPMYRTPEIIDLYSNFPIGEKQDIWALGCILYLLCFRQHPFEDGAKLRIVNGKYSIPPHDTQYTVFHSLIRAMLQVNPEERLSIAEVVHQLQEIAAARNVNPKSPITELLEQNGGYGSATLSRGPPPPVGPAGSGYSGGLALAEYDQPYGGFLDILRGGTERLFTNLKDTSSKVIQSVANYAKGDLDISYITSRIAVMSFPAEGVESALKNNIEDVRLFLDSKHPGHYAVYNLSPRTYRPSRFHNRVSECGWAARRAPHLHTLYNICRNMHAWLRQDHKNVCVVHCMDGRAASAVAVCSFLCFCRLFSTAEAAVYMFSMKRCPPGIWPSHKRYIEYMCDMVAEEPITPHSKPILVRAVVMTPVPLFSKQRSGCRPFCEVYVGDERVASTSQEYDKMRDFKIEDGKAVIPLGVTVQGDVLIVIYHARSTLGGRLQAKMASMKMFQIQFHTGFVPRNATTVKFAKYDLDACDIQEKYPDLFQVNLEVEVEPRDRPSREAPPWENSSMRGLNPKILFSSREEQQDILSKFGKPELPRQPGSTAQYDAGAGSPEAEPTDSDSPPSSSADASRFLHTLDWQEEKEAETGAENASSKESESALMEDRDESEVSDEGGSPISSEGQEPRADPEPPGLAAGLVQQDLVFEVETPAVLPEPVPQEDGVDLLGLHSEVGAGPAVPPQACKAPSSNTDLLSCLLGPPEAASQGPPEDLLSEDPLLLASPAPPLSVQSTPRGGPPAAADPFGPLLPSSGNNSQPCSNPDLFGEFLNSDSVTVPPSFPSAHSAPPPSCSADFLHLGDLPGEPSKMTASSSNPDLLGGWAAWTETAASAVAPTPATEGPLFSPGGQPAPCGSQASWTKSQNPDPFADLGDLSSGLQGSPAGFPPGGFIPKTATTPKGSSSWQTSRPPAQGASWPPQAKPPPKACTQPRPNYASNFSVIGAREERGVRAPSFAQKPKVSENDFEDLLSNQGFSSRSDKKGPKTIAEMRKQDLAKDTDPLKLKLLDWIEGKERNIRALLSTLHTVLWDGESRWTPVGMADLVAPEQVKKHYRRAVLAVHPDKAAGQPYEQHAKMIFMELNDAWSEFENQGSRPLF", "test": "Competitive site-specific PhosID-ABPP with XO44 in intact A549 cells", "format": "binding", "conditions": "apparent IC50, lysine 69 in ATP pocket, n = 3, read-out: IC50 GAK;K69", "experimental": "as §1, §2, §3, §4, §5, §6, §7, §8"}},
  "note": "Like-named read-outs stand apart in the source and are kept apart here.",
  "data": [
    {"substance": "NVP-BHG712", "values": [
      {"measurement": "Kd", "setting": "EphA2 [1]", "value": 240, "unit": "nM"},
      {"measurement": "IC50", "setting": "EphA2 [2]", "value": 3, "unit": "nM"},
      {"measurement": "IC50", "setting": "EphB4", "value": 25, "unit": "nM"},
      {"measurement": "Interaction with ATP-binding pocket, SRC;K298 signal across the concentration range", "setting": "[3]", "value": "do not interact"},
      {"measurement": "Interaction with ATP-binding pocket, JAK1;K908 signal across the concentration range", "setting": "JAK1", "value": "do not interact"},
      {"measurement": "IC50", "setting": "LYN", "value": 13400, "unit": "nM"},
      {"measurement": "IC50", "setting": "EphA2 [4]; pepsin, n = 3, read-out: IC50 EphA2;K646, peptic analysis", "value": 20.5, "unit": "nM"},
      {"measurement": "IC50", "setting": "EphA2 [4]; trypsin, n = 3, read-out: IC50 EphA2;K646, tryptic analysis", "value": 17, "unit": "nM"},
      {"measurement": "IC50", "setting": "[5]", "value": 9400, "unit": "nM"}
    ]}
  ]
}
